{"source": "patent US8389484B2", "about": "“Methods for targeting RNA molecules” (priority 1999, dated 2013)", "key": {"[1]": {"system": "1674U-allele of endogenous RPA70 mRNA", "test": "Oligonucleotide-directed cleavage of endogenous RPA70 mRNA in HeLa cell extracts (Northern blot)", "assay_type": "biochemical, human", "settings": "for cleavage of matched allele versus singly mismatched allele: HeLa (1674U) versus Calu-1 (1674C) extracts", "method": "(§1) FIG. 4. Northern blot analysis of oligonucleotide-directed cleavage of endogenous RPA70 mRNA in human cell extracts. The extracts were prepared from HeLa and Calu-1 cells that express only the 1674U- or the 1674 C-allele of the RPA70 mRNA, respectively. In addition to PS-oligos 1, 2, 3, and 6 as described in FIG. 3, oligo 7 (5′ […] 3′; SEQ ID NO:1) was used in the assay as a non-allele-specific control oligo that targets nucleotides 2230-2249 of the 3′-UTR of RPA70 mRNA. a, Targeting the 1674U/C polymorphic site by oligos 1 and 2. b, Targeting the site of different allelic structures around nucleotide 1656 by oligos 3 and 6. Reactions were done in duplicates. The averaged data points of the duplicates are plotted with standard deviations as error bars, and are shown below the corresponding Northern blots. Intact RPA70 mRNA levels were normalized to GAPDH levels and expressed as a percentage of no-oligo control for each experiment.\nOligonucleotide-directed Cleavage of Endogenous RPA70 mRNA in Human Cell Extracts. Human tumor cell lines HeLa and Calu-1 (American Type Culture collection) were genotyped for SNPs in RPA70 cDNA by RFLP analysis and by sequencing. […] HeLa cells were cultured in monolayers in minimum essential medium (Gibco BRL), and Calu-1 cells were cultured in monolayers in McCoy's 5A medium (Sigma). Both media were supplemented with 10% heat inactivated fetal bovine serum (JRH Biosciences), 100 units/mL penicillin-100 μg/mL streptomycin (Gibco BRL), and 2 mM L-glutamine (Gibco BRL). Both cell lines were grown under 5% CO2/95% air in a humidified incubator at 37° C. For preparation of cell extracts, the cells were grown to 80-90% confluence, typsinized, and washed twice with the complete medium as specified above and twice with phosphate buffered saline (Gibco BRL). Approximately 5×10^7 Cells were lysed in a 15 mL tissue grinder with a Teflon pestle (Wheaton) in the presence of 1.5 mL lysis buffer (20 mM Tris.HCl, pH 7.5, 420 mM NaCl, 2 mM MgCl2, 0.2 mM EDTA, 1 mM DTT, 0.5 mM phenylmethyl sulfonylfluoride (PMSF), and 25% glycerol). The sodium salt concentration was chosen to facilitate the disruption of the nuclear membrane to release RNase H from nuclei (21). Up to 200 strokes were needed to completely lyse the cells, as checked using a hemacytometer. The cell lysate was centrifuged at 14,000, rpm for 10 min at 4° C., and cell extracts were obtained by transferring supernatant to clean microcentrifuge tubes and freezing immediately at −80° C. Total protein concentration of cell extracts was determined using the Bradford assay (Bio-Rad). For oligodeoxynucleotide-directed cleavage of endogenous mRNA reactions, cell extracts were diluted to a total protein concentration of 3 mg/mL with the lysis buffer. After the addition of a 10× PS-oligo solution to the diluted cell extracts, the reaction mixture was incubated for 40 min at 37° C. The level of intact RPA70 mRNA was determined by total RNA isolation and Northern blot hybridization using procedures described previously (22, 23), and followed by phosphoimager analysis. Northern probes specific for RPA70 mRNA were synthesized by random primed [α-^32P]dCTP-labeling of a cDNA probe corresponding to nucleotides 1519-2080 of human RPA70 mRNA. To account for variability in the amount of total RNA loaded into individual gel wells for Northern analysis, the level of glyceraldehyde 3-phosphate dehydrogenase (GAPDH) mRNA was also measured by first stripping the RPA70 mRNA probe, and then reprobing the same Northern blot with a random primed [α-^32P]dCTP-labeled cDNA probe corresponding to a 600 nucleotide sequence of human GAPDH (Stratagene).\nAllele-specific Cleavage of Endogenous RPA70 mRNA in Human Cell Extracts. We next performed oligo-directed cleavage of the full-length, endogenous RPA70 mRNA in whole cell extracts prepared from two genotyped human cell lines, HeLa (1674U) and Calu-1 (1674C). […]"}, "[2]": {"system": "U- and C-alleles of the 544-mer fragment of the RPA70-1674U/C mRNA", "test": "E. coli RNase H digestion assay, oligo-directed cleavage in a purified system", "assay_type": "biochemical, human", "settings": "for cleavage efficiency, matched allele versus mismatched allele: 544-mer RPA70 mRNA fragments, oligos target the SNP at position 1674; for reduction in the cleavage of both alleles as compared to parent oligo 3: 544-mer U- and C-alleles, E. coli RNase H; for enhancement in allele discrimination versus parent oligo 3: hairpin oligos, under the experimental conditions", "description": "FIG. 3. E. coli RNase H digestion of both alleles of the 544-mer fragment of the RPA70-1674U/C mRNA. a, Nucleotide sequence of the PS-oligos used in the assay. Oligos 1 and 2 (SEQ ID NOs:6 and 7, respectively) target the polymorphic site; the bases opposing the polymorphism in the mRNA are shown in boldface. Oligos 3 and 6 (SEQ ID NOs:8 and 11, respectively) target the site of different allelic structures around nucleotide 1656. The terminal residues of oligos 1, 2, 3, and 6 (SEQ ID NOs:6, 7, 8, and 11, respectively) are labeled according to the positions of the complementary nucleotides in RPA70 mRNA. Oligos 4 and 5 (SEQ ID NOs:9 and 10, respectively) share the same target hybridization sequence as 3 (SEQ ID NO:8), but with additional nucleotides (shown underlined) added to facilitate folding into hairpin structures for intended enhancement in allele discrimination. b, E. coli RNase H digestion patterns of the 5′-^32P-labeled U- and C-alleles hybridized to the oligos in a. Cleavage sites were confirmed by running on the same gel RNase T1 digestion ladders for the two alleles (not shown): they are centered at position 1674 for oligos 1 and 2 (SEQ ID NOs:6 and 7), 1650 for oligos 3-5 (SEQ ID NOs:8-10), and 1654 for oligo 6 (SEQ ID NO:11). c, Comparison of percent cleavages of the U- and C-alleles calculated from b. Oligo-dependent-cleavage bands were integrated as a percentage of total RNA in each lane with the overlapping background-cleavage bands subtracted. Variations in sample loading to each lane were internally corrected by measuring percent cleavage instead of absolute band intensity.\nE. coli RNase H Digestion Assay. Phosphorothioate oligodeoxyribonucleotides (PS-oligos) were employed in our studies because of their enhanced stability against nucleases (20). PS-oligos were chemically synthesized and desalted on C-18 cartridges by Synthetic Genetics. One, pmol of 5′-^32P-labeled mRNA was renatured in 12 μL RNase H buffer (20 mM Tris.HCl, pH 7.5, 10 mM KCl, 5 mM MgCl2, 0.1 mM dithiothreitol (DTT), 5% glycerol, and 10 μg phenol-extracted glycogen) by heating for 1 min at 85° C., then cooling for 5 min at room temperature followed by 10 min at 37° C. E. coli RNase H (0.6 units, Pharmacia) was then added to the renatured mRNA and incubated for 5 min at 37° C. PS-oligos (5 pmol in RNase H buffer) were subsequently added, and the reaction mixture (15 μL total) incubated for 20 min at 37° C. The digestion products were fractionated on a 4% denaturing polyacrylamide gel, and the cleavage patterns visualized by autoradiography. RNA levels were quantified using a phosphoimager (Fujifilm Model FLA-2000).\nAllele-specific Cleavage of RPA70 mRNA in a Purified System. We first used an in vitro assay with E. coli RNase H and the in vitro transcribed 544-mer RPA70 mRNA fragments to examine the efficiency and allele specificity of structure-based targeting as compared to directly targeting the 1674U/C polymorphism. […] SNP-targeting oligos 1 and 2 were previously optimized for allele discrimination in a cell transfection assay (J. P. Basilion, unpublished results). Each of the SNP-targeting oligos is perfectly matched only with one of the two alleles; it is singly mismatched with the other allele. Single base mismatches formed between the SNP-targeting oligos and their respective non-targeting alleles contribute to the allele discrimination observed previously. Structure-targeting oligos 3 and 6 match perfectly with both alleles, and were designed to hybridize maximally with the single-stranded 1656 region of the U-allele, while avoiding the 1664 region which is slightly accessible in both alleles (FIG. 1b). Four and six additional nucleotides were added to the 5′-end of oligo 3 to produce oligos 4 and 5, respectively, to facilitate folding into hairpin structures for enhanced allele discrimination (27)."}, "[3]": {"system": "1674C-allele of endogenous RPA70 mRNA", "test": "Oligonucleotide-directed cleavage of endogenous RPA70 mRNA in Calu-1 cell extracts (Northern blot)", "assay_type": "biochemical, human", "settings": "300 nM oligo, Calu-1 (1674C) extracts", "method": "as §1\nOligonucleotide-directed Cleavage of Endogenous RPA70 mRNA in Human Cell Extracts. […] Total protein concentration of cell extracts was determined using the Bradford assay (Bio-Rad). […] The level of intact RPA70 mRNA was determined by total RNA isolation and Northern blot hybridization using procedures described previously (22, 23), and followed by phosphoimager analysis. […]"}, "[4]": {"system": "1674U- and 1674C-alleles of RPA70 mRNA", "test": "Cell transfection assay (J. P. Basilion, unpublished results)", "assay_type": "cell-based, human", "settings": "previously shown"}}, "note": "In the oligonucleotide strings, read from the 5' end, every base follows the letter of its sugar. An asterisk marks phosphorothioate; unmarked linkages are phosphodiester. Other units and linkages are bracketed, terminal groups are in braces. A string of capitals states the bases alone. d = 2'-deoxy (DNA)"}
{"substance": "Oligo 1: Phosphorothioate oligodeoxyribonucleotide 20-mer (SEQ ID NO:6) targeting the RPA70 1674U/C polymorphic site, U-allele specific (dT*dA*dG*dC*dT*dT*dC*dA*dG*dC*dA*dG*dA*dC*dT*dC*dC*dT*dG*dG)", "values": [{"measurement": "extent of cleavage of the matched allele (U-allele)", "setting": "[1]; 300 nM oligo, HeLa (1674U) extracts", "result": "the majority of the matched allele remained uncleaved"}, {"measurement": "cleavage of matched allele versus singly mismatched allele", "setting": "[1]; 300 nM oligo", "result": "equally or slightly more cleaved than the singly mismatched allele"}, {"measurement": "cleavage efficiency, matched allele versus mismatched allele", "setting": "[2]", "result": "greater for their respective matched alleles than for the mismatched alleles"}]}
{"substance": "Oligo 6: Phosphorothioate oligodeoxyribonucleotide 15-mer (SEQ ID NO:11) targeting the site of different allelic structures around nucleotide 1656 of RPA70 mRNA (dC*dA*dA*dG*dT*dC*dA*dC*dC*dC*dA*dC*dT*dG*dA)", "values": [{"measurement": "allele discrimination compared with the other oligos", "setting": "[1]; HeLa versus Calu-1 extracts, all three oligo concentrations (100, 300, 600 nM)", "result": "better allele discrimination than the SNP-targeting oligos 1 and 2"}]}
{"substance": "Oligo 5: PS-oligo (SEQ ID NO:10), oligo 3 with six additional 5′-end nucleotides to facilitate folding into a hairpin structure (GAGAATCAAGTCACCCACTGATTCTC; all phosphorothioate, sugars by position and methylation of C not given here)", "values": [{"measurement": "reduction in the cleavage of both alleles as compared to parent oligo 3", "setting": "[2]", "result": 36, "unit": "%"}, {"measurement": "enhancement in allele discrimination versus parent oligo 3", "setting": "[2]", "result": "no enhancement in allele discrimination"}]}
{"substance": "Oligo 3: Phosphorothioate oligodeoxyribonucleotide 20-mer (SEQ ID NO:8) targeting the site of different allelic structures around nucleotide 1656 of RPA70 mRNA (dC*dA*dA*dG*dT*dC*dA*dC*dC*dC*dA*dC*dT*dG*dA*dT*dT*dC*dT*dC)", "values": [{"measurement": "non-target C-allele intact", "setting": "[3]; intact mRNA normalized to GAPDH, % of no-oligo control", "result": "more than 90%"}, {"measurement": "U-allele remaining uncleaved", "setting": "[1]; 300 nM oligo, HeLa (1674U) extracts, intact mRNA normalized to GAPDH, % of no-oligo control", "result": 15, "unit": "%"}, {"measurement": "allele discrimination relative to that obtained by directly targeting the polymorphism with 20-mer 1", "setting": "[1]; HeLa versus Calu-1 extracts, percentage of intact mRNA evaluated, 100, 300 and 600 nM", "result": "two- to sixfold"}]}
{"substance": "5′ TGGTCTGCAGTTAGGGTCAG 3′ (phosphorothioate backbone, further chemistry not given here) [Oligo 7]", "values": [{"measurement": "response of the two cell types to the control oligo", "setting": "[1]; HeLa versus Calu-1 extracts, 100 to 600 nM", "result": "responded similarly"}, {"measurement": "targeting efficiency on the 1674U- and 1674C-alleles", "setting": "[4]", "result": "equally high efficiency"}]}
{"substance": "Oligo 4: PS-oligo (SEQ ID NO:9), oligo 3 with four additional 5′-end nucleotides to facilitate folding into a hairpin structure (GAATCAAGTCACCCACTGATTCTC; all phosphorothioate, sugars by position and methylation of C not given here)", "values": [{"measurement": "reduction in the cleavage of both alleles as compared to parent oligo 3", "setting": "[2]", "result": 23, "unit": "%"}, {"measurement": "enhancement in allele discrimination versus parent oligo 3", "setting": "[2]", "result": "no enhancement in allele discrimination"}]}
{"substance": "Oligo 2: Phosphorothioate oligodeoxyribonucleotide 18-mer (SEQ ID NO:7) targeting the RPA70 1674U/C polymorphic site, C-allele specific (dG*dC*dT*dT*dC*dA*dG*dC*dG*dG*dA*dC*dT*dC*dC*dT*dG*dG)", "values": [{"measurement": "extent of cleavage of the matched allele (C-allele)", "setting": "[3]", "result": "the majority of the matched allele remained uncleaved"}, {"measurement": "cleavage of matched allele versus singly mismatched allele", "setting": "[1]; 300 nM oligo", "result": "equally or slightly more cleaved than the singly mismatched allele"}, {"measurement": "cleavage efficiency, matched allele versus mismatched allele", "setting": "[2]", "result": "greater for their respective matched alleles than for the mismatched alleles"}]}
